In assay [1] the target is human IRAK4 FL (Full Length) (Homo sapiens (Human), UniProt Q9NWZ3). The assay is described as follows: IRAK4 Enzymatic DELFIA Assay, Protocol A. Format: biochemical. The following applies: human IRAK4 FL, 0.6 mM ATP (KM); read-out: IRAK4 DELFIA Protocol A IC50.
Assay [2] relates to R848-induced TNFα production by human peripheral blood mononuclear cells (PBMCs). Kind of assay: R848 Induced TNFα in Human PBMC Assay. Format: cell-based. The following applies: Homo sapiens, PBMC, 3 h, read-out: R848-induced TNFa PBMC IC50 (nM).
From the text: This protocol is for R848-induced TNFα production by human peripheral blood mononuclear cells (PBMCs). […] The assay is used to assess cell-based potency of small molecule inhibitors of IRAK4 in the absence of serum.
The PBMCs in the interphase layer were collected and washed with PBS via centrifugation multiple times until the supernatant is clear. The purified PBMCs were re-suspended in RPMI (Roswell Park Memorial Institute) media (Sigma-Aldrich).
For the assay, a compound dilution plate containing a top concentration of 4 mM compound in DMSO was serially diluted 4-fold for 11 times. 250 nL of the compound dilution plate was spotted into a 384-well, flat bottom with lid, TC-treated, black with clear bottom, sterile, polystyrene plate (Corning Life Sciences).
10 μL of anti-TNFα antibody labeled with MSD SULFO-TAG at 50 μg/mL was added to each well and allowed to incubate overnight at 4° C.

Sequence of human IRAK4 FL (Full Length) (Q9NWZ3 whole entry): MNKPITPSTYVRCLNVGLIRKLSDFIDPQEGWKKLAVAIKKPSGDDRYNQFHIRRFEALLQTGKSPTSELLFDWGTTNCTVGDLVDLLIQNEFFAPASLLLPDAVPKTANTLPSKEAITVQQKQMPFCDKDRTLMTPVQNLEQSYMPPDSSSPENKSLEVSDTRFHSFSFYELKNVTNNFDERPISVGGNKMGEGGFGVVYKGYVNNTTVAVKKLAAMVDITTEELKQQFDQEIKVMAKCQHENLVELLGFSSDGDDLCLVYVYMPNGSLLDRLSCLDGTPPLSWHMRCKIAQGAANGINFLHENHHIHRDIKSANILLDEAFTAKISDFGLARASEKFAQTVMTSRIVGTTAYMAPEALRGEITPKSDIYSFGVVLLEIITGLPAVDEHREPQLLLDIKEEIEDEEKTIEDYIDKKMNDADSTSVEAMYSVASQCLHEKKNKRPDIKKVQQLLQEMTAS

Consider `COc1cc2c(OC[C@H]3NC(=O)O[C@H]3C)nccc2cc1C(N)=O` [Example 236, 7-methoxy-1-{[(4R,5S)-5-methyl-2-oxo-1,3-oxazolidin-4-yl]methoxy}isoquinoline-6-carboxamide], for which the values for the IC50 in assay [1] and in assay [2] were 8.4 nM and 125 nM, respectively.

Take `COc1cc2c(OC[C@H]3NC(=O)[C@](C)(F)[C@H]3C)nccc2cc1C(N)=O` [Example 237, 1-{[(2S,3S,4R)-4-fluoro-3,4-dimethyl-5-oxopyrrolidin-2-yl]methoxy}-7-methoxyisoquinoline-6-carboxamide]: the values for the IC50 in assay [1] and in assay [2] were 295 nM and 1080 nM, respectively.

Regarding `COc1cc2c(OC[C@H]3NC(=O)[C@@](C)(F)[C@H]3C)nccc2cc1C(N)=O` [Example 238, 1-{[(2S,3S,4S)-4-fluoro-3,4-dimethyl-5-oxopyrrolidin-2-yl]methoxy}-7-methoxyisoquinoline-6-carboxamide], the IC50 in assay [1] was found to be 3.7 nM; in assay [2], 45 nM.

For `COc1cc2c(OC[C@@H]3C[C@H](C)C(=O)N3)nccc2cc1C(N)=O` [Example 242, 7-methoxy-1-{[(2S,4S)-4-methyl-5-oxopyrrolidin-2-yl]methoxy}isoquinoline-6-carboxamide], the IC50 is 263 nM in assay [1] and 7250 nM in assay [2].

In the case of `COc1cc2c(OC[C@@H]3C[C@@H](C)C(=O)N3)nccc2cc1C(N)=O` [Example 243, 7-methoxy-1-{[(2S,4R)-4-methyl-5-oxopyrrolidin-2-yl]methoxy}isoquinoline-6-carboxamide], the IC50 was 205 nM in assay [1] and 713 nM in assay [2].

In the case of `COc1cc2c(OC[C@@H]3CC4(CC4)C(=O)N3)nccc2cc1C(N)=O` [Example 245, 7-methoxy-1-{[(6S)-4-oxo-5-azaspiro[2.4]hept-6-yl]methoxy}isoquinoline-6-carboxamide], the IC50 in assay [1] came to 29 nM; in assay [2], 529 nM.

For `COc1cc2c(OC[C@H]3NC(=O)C[C@@H]3CF)nccc2cc1C(N)=O` [Example 249, 1-{[(2S,3S)-3-(fluoromethyl)-5-oxopyrrolidin-2-yl]methoxy}-7-methoxyisoquinoline-6-carboxamide], the figures for the IC50 in assay [1] and in assay [2] were 20 nM and 764 nM, respectively.

On to `COc1cc2c(OC[C@H]3NC(=O)[C@@H](F)[C@H]3C)ccnc2cc1C(N)=O` [Example 250, 4-{[(2S,3S,4S)-4-fluoro-3-methyl-5-oxopyrrolidin-2-yl]methoxy}-6-methoxyquinoline-7-carboxamide], for which the IC50 in assay [1] was 0.6 nM; in assay [2], 144 nM.

As to `C=C[C@@H]1CC(=O)N[C@@H]1COc1nccc2cc(C(N)=O)c(OC)cc12` [Example 251, 1-{[(2S,3S)-3-ethenyl-5-oxopyrrolidin-2-yl]methoxy}-7-methoxyisoquinoline-6-carboxamide], the IC50 in assay [1] worked out at 3.4 nM; in assay [2] it was 72 nM.

For `COc1cc2c(OC[C@@H]3C[C@H](F)C(=O)N3)nccc2cc1C(N)=O` [Example 252, 1-{[(2S,4S)-4-fluoro-5-oxopyrrolidin-2-yl]methoxy}-7-methoxyisoquinoline-6-carboxamide], the values for the IC50 in assay [1] and in assay [2] were 0.9 nM and 40 nM, respectively.

Regarding `COc1cc2c(OC[C@@H]3C[C@@H](F)C(=O)N3)nccc2cc1C(N)=O` [Example 253, 1-{[(2S,4R)-4-fluoro-5-oxopyrrolidin-2-yl]methoxy}-7-methoxyisoquinoline-6-carboxamide], the IC50 in assay [1] is 2.6 nM; in assay [2], 122 nM.

As to `CC[C@@]1(F)C[C@@H](COc2nccc3cc(C(N)=O)c(OC)cc23)NC1=O` [Example 256, 1-{[(2S,4R)-4-ethyl-4-fluoro-5-oxopyrrolidin-2-yl]methoxy}-7-methoxyisoquinoline-6-carboxamide], the IC50 in assay [1] was 2000 nM; in assay [2] it was 5620 nM.

`CC[C@]1(F)C[C@@H](COc2nccc3cc(C(N)=O)c(OC)cc23)NC1=O` [Example 257, 1-{[(2S,4S)-4-ethyl-4-fluoro-5-oxopyrrolidin-2-yl]methoxy}-7-methoxyisoquinoline-6-carboxamide]: the IC50 was found to be 6.8 nM in assay [1] and 60 nM in assay [2].
